The values below come from patent US20220105170A1 (priority 2019, published 2022).

“And” between values parts separate entries of the source, which are not always exact repeats. Identical values can stand only once.

The experiment has as its system peripheral blood lymphocytes collected from swine exposed to ASFV. The experiment is classed as cell-based.
1159 (MAEIRFLSM) [compound 1159]: the “Number of Spots” value is given as 12. The figure for 1761 (SVYHVQEEL) [compound 1761] is 12; for 1824 (SMMDFERVHY) [compound 1824] it is 14; for 842 (SSMHSGMLY) [compound 842] it is 13 and 23. The figure for 70 (KSMPLIVENSY) [compound 70] is 35; for 1483 (KTIKHYEQL) [compound 1483] it is 12; for 2038 (CGKRNCPLYY) [compound 2038] it is 12. In the case of 1880 (FLNAYAHKL) [compound 1880], the “Number of Spots” value came to 12. The figure for 1509 (TLAQVFESF) [compound 1509] is 17; for 1989 (RMHIYETNLY) [compound 1989] it is 14; for 285 (QAMLSSIQYY) [compound 285] it is 14. In the case of 1514 (EAAELYFRL) [compound 1514], the “Number of Spots” value is 15. Take 2213 (KTSSNIILY) [compound 2213]: the “Number of Spots” value came to 12. With 84 (KVLGLLLGY) [compound 84] the figure was 16; with 971 (LTLSSNYFY) [compound 971], 12; with 2183 (PHIFYRPLYR) [compound 2183], 15.

Consider 69 (KVNKSMPLI) [compound 69], for which the “Number of Spots” value is given as 255. On to 931 (SIDYWVSFNK) [compound 931], for which the “Number of Spots” value came to 12. In the case of 2146 (KLLTHFNIYR) [compound 2146], the “Number of Spots” value is on record as 16. As to 1400 (KESAETIYTF) [compound 1400], the “Number of Spots” value amounted to 14. The figure for 2166 (KIDDFIRLY) [compound 2166] is 13.

In the case of 64 (KVNNSMPLI) [compound 64], the “Number of Spots” value turned out to be 32. With 1265 (INRNYYPYY) [compound 1265], the “Number of Spots” value was 12. The figure for 1619 (IDFDPLVTFY) [compound 1619] is 16; for 1810 (KTIFNNVRY) [compound 1810] it is 13. The figure for 1633 (ITRQTFMDI) [compound 1633] is 14; for 1627 (GTDLYQSAM) [compound 1627] it is 12; for 2252 (AIQYFYQRYR) [compound 2252] it is 13.

Take 889 (MMHYPTFNW) [compound 889]: the “Number of Spots” value worked out at 16. The figure for 335 (YLHETLFEL) [compound 335] is 12; for 756 (FTDNLCFMM) [compound 756] it is 19; for 1507 (ATVSAIELEY) [compound 1507] it is 13.

As to 784 (KSKQASISSI) [compound 784], the “Number of Spots” value stood at 12. The figure for 469 (HVVQRLGLY) [compound 469] is 14; for 1139 (ALANTSANY) [compound 1139] it is 12. The figure for 329 (ASLDYGMNL) [compound 329] is 12; for 1852 (HTLIISPEF) [compound 1852] it is 15. The figure for 1287 (VHFNAHFKPY) [compound 1287] is 14; for 1388 (LVYELPAPF) [compound 1388] it is 14.

For the substance 1836 (GKTMPVEFYY) [compound 1836], the “Number of Spots” value worked out at 17. For 1151 (NLSEVVTAY) [compound 1151], the “Number of Spots” value worked out at 16. With 849 (FLKKNIYLY) [compound 849], the “Number of Spots” value is reported as 13. With 1065 (KTRGTRLFF) [compound 1065] the figure was 36; with 1759 (VQLANSSVYY) [compound 1759], 15.

Consider 1228 (SSYNRSLLH) [compound 1228], for which the “Number of Spots” value came out at 15. The figure for 1835 (KILGLLLAY) [compound 1835] is 21; for 2185 (HIFYRPLYRY) [compound 2185] it is 15; for 2225 (SFSEMLTRYW) [compound 2225] it is 12. With 908 (VGYNNVCYY) [compound 908] the figure was 16.

In the case of 1461 (YTLLSPLQSY) [compound 1461], the “Number of Spots” value is 13 and 17. For 85 (KSELSYWCTY) [compound 85], the “Number of Spots” value turned out to be 20. With 1372 (NVSRAREFY) [compound 1372] the figure was 12. With 2126 (TAIQKNYFRF) [compound 2126] the figure was 13; with 743 (SKFCNHMFF) [compound 743], 16. For 2242 (YNLTEAIQY) [compound 2242], the “Number of Spots” value was found to be 12. The figure for 357 (YSYCFIKHF) [compound 357] is 13; for 1631 (FTQITRQTF) [compound 1631] it is 12; for 869 (GLAALVSPY) [compound 869] it is 13.

With 1091 (LFPQYISYY) [compound 1091], the “Number of Spots” value is 17. The figure for 633 (ILEGVLGYF) [compound 633] is 14; for 641 (GRSLNMLSLI) [compound 641] it is 16.

241 (MVYNFNTLY) [compound 241]: the “Number of Spots” value worked out at 16. Take 2127 (AIQKNYFRF) [compound 2127]: the “Number of Spots” value was determined as 15. As for 66 (CTYGEGNGHY) [compound 66], the “Number of Spots” value came out at 62. For the substance 962 (TTLINCTY) [compound 962], the “Number of Spots” value worked out at 12.

With 565 (SKVMDMICLDY) [compound 565], the “Number of Spots” value amounted to 17. With 827 (NNVSYYWGL) [compound 827] the figure was 13. With 1950 (ELVDHIFNY) [compound 1950] the figure was 16. The figure for 1379 (VVSASAINF) [compound 1379] is 13; for 275 (ATYNHRKILIY) [compound 275] it is 21. Take 449 (HTIYQSYSL) [compound 449]: the “Number of Spots” value came out at 19. With 2092 (KAKIAFPPEY) [compound 2092] the figure was 17; with 1370 (GAMMITFAL) [compound 1370], 14. In the case of 557 (LIEFLTGFF) [compound 557], the “Number of Spots” value amounted to 16. With 635 (IRGRSLNMLSL) [compound 635] the figure was 12; with 1749 (TLDFDRMWY) [compound 1749], 15; with 1982 (NAFEWIHFV) [compound 1982], 14. As for 1394 (SSFKCWTCHLY) [compound 1394], the “Number of Spots” value is on record as 14. With 1512 (QIYKTLLEY) [compound 1512] the figure was 21. The figure for 1111 (RTDFVWVADL) [compound 1111] is 13; for 1264 (RINRNYYPYYI) [compound 1264] it is 12; for 857 (AVNSTGLIGY) [compound 857] it is 17. The figure for 1783 (GMQDGIRWFY) [compound 1783] is 13; for 1127 (RALKMYEDYY) [compound 1127] it is 12. Take 1566 (ARIYAGQGY) [compound 1566]: the “Number of Spots” value is reported as 14. With 1955 (SSAELYRKM) [compound 1955] the figure was 14; with 297 (LRHNFTKAIHY) [compound 297], 16; with 884 (ISAINHFNY) [compound 884], 19.

On to 1718 (SSELHFYVF) [compound 1718], for which the “Number of Spots” value came out at 15.

As for 1172 (RCQHHAFSY) [compound 1172], the “Number of Spots” value is on record as 12.

For the substance 1814 (YTIHYSMPY) [compound 1814], the “Number of Spots” value is 17. Regarding 1187 (FSEHTKFFSY) [compound 1187], the “Number of Spots” value was 15 and 16.

In the case of 1279 (YPYYIYKIF) [compound 1279], the “Number of Spots” value is on record as 12.

For 1227 (ETYARLSSY) [compound 1227], the “Number of Spots” value was 12. With VLIEFLTGFF [SEQ ID NO. 554] the figure was 16; with 2118 (MMQTAIQKNYF) [compound 2118], 13. The figure for 2171 (FIRLYPHIFY) [compound 2171] is 18; for 1347 (LMSALKWPI) [compound 1347] it is 17. The figure for 2223 (SFSEMLTRY) [compound 2223] is 12; for 328 (KNHLYWRV) [compound 328] it is 13. On to 1019 (TQPLNPFPL) [compound 1019], for which the “Number of Spots” value amounted to 21.

For the substance 2193 (ALNRHITTY) [compound 2193], the “Number of Spots” value came out at 12.

On to 1454 (INHLYKFLL) [compound 1454], for which the “Number of Spots” value is 12 and 18. The figure for 1649 (TLMDQPTY) [compound 1649] is 18; for 321 (KRHKNHLY) [compound 321] it is 14; for 1205 (QDYSLTFLLK) [compound 1205] it is 17.

With 1390 (QQMLTRHIY) [compound 1390], the “Number of Spots” value is on record as 12.

As for 1986 (KINQRSFSF) [compound 1986], the “Number of Spots” value turned out to be 13.

In the case of 2197 (KVRNKAIELY) [compound 2197], the “Number of Spots” value is recorded as 17. For the substance 534 (RYFTFKFAAHL) [compound 534], the “Number of Spots” value was determined as 12. With 1941 (AIEEEDIQF) [compound 1941] the figure was 12; with 1556 (QVVFHAGSLY) [compound 1556], 13.
